The source made the active and inactive calls. The calls are words filed in the database; no cut-off is given here.
Columns and labels:
[1] = system: KM12; assay: Growth inhibition of human KM12 cells after 48 hrs by sulforhodamine B assay; type: functional; details: KM12, 48 h
[2] = system: UACC-62; assay: Growth inhibition of human UACC62 cells at 1 uM after 48 hrs by sulforhodamine B assay; type: functional, cell-based
[3] = system: CAKI-1; assay: Growth inhibition of human Caki1 cells after 48 hrs by sulforhodamine B assay; type: functional; details: CAKI-1, 48 h; for CC50: read-out: LC50 (the source's name)
[4] = system: Malme-3M; assay: Growth inhibition of human MALME-3M cells after 48 hrs by sulforhodamine B assay; type: functional
[5] = system: TK-10; assay: Growth inhibition of human TK10 cells after 48 hrs by sulforhodamine B assay; type: functional; details: TK-10, 48 h
[6] = system: U-251; assay: Growth inhibition of human U251 cells at 1 uM after 48 hrs by sulforhodamine B assay; type: functional, cell-based
[7] = system: COLO 205; assay: Growth inhibition of human COLO205 cells after 48 hrs by sulforhodamine B assay; type: functional; details: COLO 205, 48 h
[8] = system: A549; assay: Growth inhibition of human A549 cells at 1 uM after 48 hrs by sulforhodamine B assay; type: functional, cell-based
[9] = system: MDA-MB-231; assay: Growth inhibition of human MDA-MB-231 cells at 1 uM after 48 hrs by sulforhodamine B assay; type: functional, cell-based
[10] = system: EKVX; assay: Growth inhibition of human EKVX cells at 1 uM after 48 hrs by sulforhodamine B assay; type: functional, cell-based
[11] = system: MCF7; assay: Growth inhibition of human MCF7 cells at 1 uM after 48 hrs by sulforhodamine B assay; type: functional, cell-based
[12] = system: UO-31; assay: Growth inhibition of human UO31 cells after 48 hrs by sulforhodamine B assay; type: functional; details: UO-31, 48 h
[13] = system: ACHN; assay: Growth inhibition of human ACHN cells after 48 hrs by sulforhodamine B assay; type: functional
[14] = system: K562; assay: Growth inhibition of human K562 cells at 1 uM after 48 hrs by sulforhodamine B assay; type: functional, cell-based
[15] = system: UACC-257; assay: Growth inhibition of human UACC257 cells at 1 uM after 48 hrs by sulforhodamine B assay; type: functional, cell-based
[16] = system: SK-MEL-28; assay: Growth inhibition of human SK-MEL-28 cells at 1 uM after 48 hrs by sulforhodamine B assay; type: functional, cell-based
[17] = system: HT-29; assay: Growth inhibition of human HT-29 cells at 1 uM after 48 hrs by sulforhodamine B assay; type: functional, cell-based
[18] = system: MDA-MB-468; assay: Growth inhibition of human MDA-MB-468 cells at 1 uM after 48 hrs by sulforhodamine B assay; type: functional, cell-based
[19] = system: OVCAR-3; assay: Growth inhibition of human OVCAR-3 cells at 1 uM after 48 hrs by sulforhodamine B assay; type: functional, cell-based
[20] = system: NCI/ADR-RES; assay: Growth inhibition of human NCI/ADR-RES cells at 1 uM after 48 hrs by sulforhodamine B assay; type: functional, cell-based
[21] = system: MDA-MB-468; assay: Growth inhibition of human MDA-MB-468 cells after 48 hrs by sulforhodamine B assay; type: functional; details: MDA-MB-468, 48 h; for CC50: read-out: LC50 (the source's name)
[22] = system: SF-295; assay: Growth inhibition of human SF295 cells at 1 uM after 48 hrs by sulforhodamine B assay; type: functional, cell-based
[23] = system: LOX IMVI; assay: Growth inhibition of human LOXIMVI cells at 1 uM after 48 hrs by sulforhodamine B assay; type: functional, cell-based
[24] = system: SK-MEL-5; assay: Growth inhibition of human SK-MEL-5 cells at 1 uM after 48 hrs by sulforhodamine B assay; type: functional, cell-based
[25] = system: MDA-MB-231; assay: Growth inhibition of human MDA-MB-231 cells after 48 hrs by sulforhodamine B assay; type: functional; details: MDA-MB-231, 48 h; for CC50: read-out: LC50 (the source's name)
[26] = system: UACC-257; assay: Growth inhibition of human UACC257 cells after 48 hrs by sulforhodamine B assay; type: functional; details: UACC-257, 48 h; for CC50: read-out: LC50 (the source's name)
[27] = system: M14; assay: Growth inhibition of human M14 cells at 1 uM after 48 hrs by sulforhodamine B assay; type: functional, cell-based
[28] = system: RPMI-8226; assay: Growth inhibition of human RPMI8226 cells after 48 hrs by sulforhodamine B assay; type: functional; details: RPMI-8226, 48 h
[29] = system: NCI-H23; assay: Growth inhibition of human NCI-H23 cells at 1 uM after 48 hrs by sulforhodamine B assay; type: functional, cell-based
[30] = system: A498; assay: Growth inhibition of human A498 cells at 1 uM after 48 hrs by sulforhodamine B assay; type: functional, cell-based
[31] = system: PC-3; assay: Growth inhibition of human PC3 cells after 48 hrs by sulforhodamine B assay; type: functional; details: PC-3, 48 h
[32] = system: UACC-62; assay: Growth inhibition of human UACC62 cells after 48 hrs by sulforhodamine B assay; type: functional; details: UACC-62, 48 h
[33] = system: HOP-92; assay: Growth inhibition of human HOP92 cells after 48 hrs by sulforhodamine B assay; type: functional; details: HOP-92, 48 h
[34] = system: OVCAR-8; assay: Growth inhibition of human OVCAR8 cells at 1 uM after 48 hrs by sulforhodamine B assay; type: functional, cell-based
[35] = system: PC-3; assay: Growth inhibition of human PC3 cells at 1 uM after 48 hrs by sulforhodamine B assay; type: functional, cell-based
[36] = system: SW-620; assay: Growth inhibition of human SW620 cells at 1 uM after 48 hrs by sulforhodamine B assay; type: functional, cell-based
[37] = system: HCC 2998; assay: Growth inhibition of human HCC2998 cells at 1 uM after 48 hrs by sulforhodamine B assay; type: functional, cell-based
[38] = system: HL-60; assay: Growth inhibition of human HL-60(TB) cells at 1 uM after 48 hrs by sulforhodamine B assay; type: functional, cell-based
[39] = system: NCI-H23; assay: Growth inhibition of human NCI-H23 cells after 48 hrs by sulforhodamine B assay; type: functional; details: NCI-H23, 48 h
[40] = system: SK-MEL-2; assay: Growth inhibition of human SK-MEL-2 cells at 1 uM after 48 hrs by sulforhodamine B assay; type: functional, cell-based
[41] = system: EKVX; assay: Growth inhibition of human EKVX cells after 48 hrs by sulforhodamine B assay; type: functional
[42] = system: NCI/ADR-RES; assay: Growth inhibition of human NCI/ADR-RES cells after 48 hrs by sulforhodamine B assay; type: functional
[43] = system: A498; assay: Growth inhibition of human A498 cells after 48 hrs by sulforhodamine B assay; type: functional; details: A498, 48 h
[44] = system: RPMI-8226; assay: Growth inhibition of human RPMI8226 cells at 1 uM after 48 hrs by sulforhodamine B assay; type: functional, cell-based
[45] = system: 786-0; assay: Growth inhibition of human 786-0 cells at 1 uM after 48 hrs by sulforhodamine B assay; type: functional, cell-based
[46] = system: NCI-H460; assay: Growth inhibition of human NCI-H460 cells after 48 hrs by sulforhodamine B assay; type: functional; details: NCI-H460, 48 h

Nc1nc(N)c2c(n1)NC(c1ccc(F)cc1)C1CCc3ccccc3C1=N2 (stereo not given)
GI50 [1]: 4.93 µM | LC50 (concentration killing 50% of cells) [1]: 43.1 µM | growth inhibition (GI) [2]: inactive | GI50 [3]: 2.72 µM | CC50 [3]: 44.6 µM | GI50 [4]: 2.52 µM | LC50 [4]: 68.6 µM | GI50 [5]: 3.63 µM | LC50 (50% lethal concentration) [5]: 50.9 µM | growth inhibition (GI) [6]: inactive | GI50 [7]: 1.62 µM | LC50 (50% lethal concentration) [7]: 80.7 µM | growth inhibition (GI) [8]: inactive | growth inhibition (GI) [9]: inactive | growth inhibition (GI) [10]: inactive | growth inhibition (GI) [11]: inactive | GI50 [12]: 3.34 µM | LC50 [12]: 55.3 µM | GI50 [13]: 4.96 µM | LC50 (50% lethal concentration) [13]: 42.2 µM | growth inhibition (GI) [14]: inactive | growth inhibition (GI) [15]: inactive | growth inhibition (GI) [16]: inactive | growth inhibition (GI) [17]: inactive | growth inhibition (GI) [18]: inactive | growth inhibition (GI) [19]: inactive | growth inhibition (GI) [20]: inactive | GI50 [21]: 1.43 µM | CC50 [21]: 33 µM | growth inhibition (GI) [22]: inactive | growth inhibition (GI) [23]: inactive | growth inhibition (GI) [24]: inactive | GI50 [25]: 5.8 µM | CC50 [25]: 48.5 µM | GI50 [26]: 5.37 µM | CC50 [26]: 43.3 µM | growth inhibition (GI) [27]: inactive | GI50 [28]: 1.81 µM | LC50 [28]: 62.8 µM | growth inhibition (GI) [29]: inactive | growth inhibition (GI) [30]: inactive | GI50 [31]: 2.03 µM | LC50 [31]: 40.3 µM | GI50 [32]: 3.76 µM | LC50 [32]: 42.1 µM | GI50 [33]: 1.17 µM | LC50 (50% lethal concentration) [33]: 31.5 µM | growth inhibition (GI) [34]: inactive | growth inhibition (GI) [35]: inactive | growth inhibition (GI) [36]: inactive | growth inhibition (GI) [37]: inactive | growth inhibition (GI) [38]: inactive | GI50 [39]: 4.06 µM | LC50 [39]: 46.4 µM | growth inhibition (GI) [40]: inactive | GI50 [41]: 2.83 µM | LC50 [41]: 62.6 µM | GI50 [42]: 3.19 µM | LC50 (concentration killing 50% of cells) [42]: 39.4 µM | GI50 [43]: 2.87 µM | LC50 [43]: 30.6 µM | growth inhibition (GI) [44]: inactive | growth inhibition (GI) [45]: inactive | GI50 [46]: 3.76 µM | LC50 [46]: 43.3 µM

Nc1nc(N)c2c(n1)NC(c1ccccc1)C1CCc3ccccc3C1=N2 (stereo not given)
GI50 [1]: 4.07 µM | LC50 (concentration killing 50% of cells) [1]: 39.7 µM | growth inhibition (GI) [2]: inactive | GI50 [3]: 3.97 µM | CC50 [3]: 48.5 µM | GI50 [4]: 2.13 µM | LC50 [4]: 82.5 µM | GI50 [5]: 3.01 µM | LC50 (50% lethal concentration) [5]: 43.6 µM | growth inhibition (GI) [6]: inactive | GI50 [7]: 3.07 µM | LC50 (50% lethal concentration) [7]: 38.7 µM | growth inhibition (GI) [8]: inactive | growth inhibition (GI) [9]: inactive | growth inhibition (GI) [10]: inactive | growth inhibition (GI) [11]: inactive | GI50 [12]: 2.5 µM | LC50 [12]: 45 µM | GI50 [13]: 4.38 µM | LC50 (50% lethal concentration) [13]: 41.9 µM | growth inhibition (GI) [14]: inactive | growth inhibition (GI) [15]: inactive | growth inhibition (GI) [16]: inactive | growth inhibition (GI) [17]: inactive | growth inhibition (GI) [18]: inactive | growth inhibition (GI) [19]: inactive | growth inhibition (GI) [20]: inactive | GI50 [21]: 0.473 µM | CC50 [21]: 20.8 µM | growth inhibition (GI) [22]: inactive | growth inhibition (GI) [23]: inactive | growth inhibition (GI) [24]: inactive | GI50 [25]: 6.02 µM | CC50 [25]: 51.9 µM | GI50 [26]: 3.72 µM | CC50 [26]: 42.6 µM | growth inhibition (GI) [27]: inactive | GI50 [28]: 3.21 µM | LC50 [28]: > 100 µM | growth inhibition (GI) [29]: inactive | growth inhibition (GI) [30]: inactive | GI50 [31]: 2.82 µM | LC50 [31]: > 100 µM | GI50 [32]: 3.11 µM | LC50 [32]: 45 µM | GI50 [33]: 2.55 µM | LC50 (50% lethal concentration) [33]: 40.6 µM | growth inhibition (GI) [34]: inactive | growth inhibition (GI) [35]: inactive | growth inhibition (GI) [36]: inactive | growth inhibition (GI) [37]: inactive | growth inhibition (GI) [38]: inactive | GI50 [39]: 4.56 µM | LC50 [39]: 57.4 µM | growth inhibition (GI) [40]: inactive | GI50 [41]: 2.68 µM | LC50 [41]: 78.3 µM | GI50 [42]: 3.13 µM | LC50 (concentration killing 50% of cells) [42]: > 100 µM | GI50 [43]: 2.29 µM | LC50 [43]: 30.2 µM | growth inhibition (GI) [44]: inactive | growth inhibition (GI) [45]: inactive | GI50 [46]: 3.81 µM | LC50 [46]: 44.2 µM
